Structures can show the parent of a compound that is named as a salt.
Test system: MTT (mouse pheochromocytoma)
Assay: IC50 of cell viability (ATP content)
Conditions: (24 or 48 h)
Method in brief: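 Each well of a white 1536-well plate received 5 µl of MTT mouse pheochromocytoma cells at 200,000 cells/ml in DMEM containing 5% FBS and 1% horse serum. After overnight culture at 37°C, 5% CO2, cells were exposed for 24 or 48 hrs to 23 nl of library compound in DMSO, pinned at 8 final concentrations from 0.5 nM to 46 µM. CellTiter-Glo luminescence was read after 15 minutes, and IC50 was obtained from a four-parameter logistic fit of signals normalised to positive-control and DMSO wells.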

## C[S+](=O)([O-])OCCCCO[S+](C)(=O)[O-] [Busulfan]
  IC50 of cell viability: > 46 µM

## CCCCN(CCCC)CCCOC(=O)c1ccc(N)cc1 [Butacaine]
  IC50 of cell viability: > 46 µM

## CCCCNC(C)(C)[PH](=O)O [Butafosfan]
  IC50 of cell viability: > 46 µM

## CCC(C(=O)OCCOCCN(CC)CC)c1ccccc1 (stereo not given) [Butamirate citrate]
  IC50 of cell viability: > 46 µM

## CN(Cc1ccc(C(C)(C)C)cc1)Cc1cccc2ccccc12 [Butenafina]
  IC50 of cell viability: > 46 µM

## OC(C#CCN1CCCC1)(c1ccccc1)c1ccccc1 [Butinolina]
  IC50 of cell viability: > 46 µM

## NCC[C@H](O)C(=O)N[C@@H]1C[C@@H](N)[C@@H](O[C@@H]2O[C@@H](CN)[C@@H](O)[C@@H](O)[C@H]2N)[C@@H](O[C@@H]2O[C@@H](CO)[C@@H](O)[C@H]2O)[C@H]1O [Butirosin disulfate salt]
  IC50 of cell viability: > 46 µM

## Clc1ccc(CC[C@H](Cn2ccnc2)Sc2c(Cl)cccc2Cl)cc1 [Butoconazole nitrate]
  IC50 of cell viability: > 46 µM

## CCCC(=O)OC(C(Cl)(Cl)Cl)P(=O)(OC)OC (stereo not given) [Butonate]
  IC50 of cell viability: > 46 µM

## CCCCOC(=O)c1ccccc1C(=O)OCc1ccccc1 [Butyl benzyl phthalate]
  IC50 of cell viability: > 46 µM

## Cc1cc(C(C)(C)C)c(O)c(C(C)(C)C)c1 [Butylated hydroxytoluene]
  IC50 of cell viability: > 46 µM

## CCCCOC(=O)c1ccc(O)cc1 [Butylparaben]
  IC50 of cell viability: > 46 µM

## Cc1cc(-c2ccc(/N=N/c3ccc4c([S+](=O)([O-])O)cc([S+](=O)([O-])O)c(N)c4c3O)c(C)c2)ccc1/N=N/c1ccc2c([S+](=O)([O-])O)cc([S+](=O)([O-])O)c(N)c2c1O [C.I. Direct Blue 53]
  IC50 of cell viability: > 46 µM

## C=CCN1CC(C(=O)N(CCCN(C)C)C(=O)NCC)CC2c3cccc4[nH]cc(c34)CC21 (stereo not given) [CABERGOLINE]
  IC50 of cell viability: > 46 µM

## OC(=O)CN(CC(O)=O)CC1=CC/2=C(OC/3=C/C(=O)/C(=C\C3=C2C4=CC=CC=C4C(O)=O)CN(CC(O)=O)CC(O)=O)C=C1O [CALCEIN]
  IC50 of cell viability: > 46 µM

## O=C(Nc1ccc(C(=O)O)c(O)c1)c1ccccc1 [CALCII BENZAMIDOSALICYLAS]
  IC50 of cell viability: > 46 µM

## C=C1/C(=C\C=C2/CCC[C@]3(C)[C@@H]([C@H](C)/C=C/[C@@H](O)C4CC4)CC[C@@H]23)C[C@@H](O)C[C@@H]1O [CALCIPOTRIENE]
  IC50 of cell viability: > 46 µM

## C=C1/C(=C\C=C2/CCC[C@]3(C)[C@@H]([C@H](C)CCCC(C)(C)O)CC[C@@H]23)C[C@@H](O)C[C@@H]1O [CALCITRIOL]
  IC50 of cell viability: > 46 µM

## CC(C)(CO)C(O)C(=O)NCCCC(=O)[O-] (stereo not given) [CALCIUM HOPANTENATE]
  IC50 of cell viability: > 46 µM

## CN(C)C(=O)COC(=O)Cc1ccc(OC(=O)c2ccc(NC(=N)N)cc2)cc1 [CAMOSTAT MESILATE]
  IC50 of cell viability: > 46 µM

## C=C1[C@@H]2CC[C@H](C2)C1(C)C [CAMPHENE]
  IC50 of cell viability: > 46 µM

## C[C@@]12CCC(=O)/C=C1/C=C\C3C2CC[C@]4(C)C3CC[C@@]45CCC(=O)O5 (stereo not given in full) [CANRENONE]
  IC50 of cell viability: > 46 µM

## CC1=C(/C=C/C(C)=C/C=C/C(C)=C/C=C/C=C(C)/C=C/C=C(C)/C=C/C2=C(C)C(=O)CCC2(C)C)C(C)(C)CCC1=O [CANTHAXANTHIN (euglenanone)]
  IC50 of cell viability: > 46 µM

## N=C1NCCC(C2NC(=O)/C(=C/NC(N)=O)NC(=O)C(CNC(=O)CC(N)CCCN)NC(=O)C(CO)NC(=O)C(N)CNC2=O)N1 (stereo not given) [CAPREOMYCIN SULFATE]
  IC50 of cell viability: > 46 µM

## C[C@H](CS)C(=O)N1CCC[C@H]1C(=O)O [CAPTOPRIL]
  IC50 of cell viability: > 46 µM

## CCN(CC)CCOC(=O)C1(c2ccccc2)CCCC1 [CARAMIPHEN EDISYLATE]
  IC50 of cell viability: > 46 µM

## COC(=O)N/N=C/c1c[n+]([O-])c2ccccc2[n+]1[O-] [CARBADOX]
  IC50 of cell viability: > 46 µM

## CC(C[N+](C)(C)C)OC(N)=O (stereo not drawn) [CARBAMYL-beta-METHYLCHOLINE]
  IC50 of cell viability: > 46 µM

## C[N+](C)(C)CCOC(N)=O [CARBAMYLCHOLINE]
  IC50 of cell viability: > 46 µM

## CN1C2=CC(=O)/C(=N\NC(N)=O)C=C2CC1S(=O)(=O)[O-] (stereo not given) [CARBAZOCHROME SODIUM SULFONATE]
  IC50 of cell viability: > 46 µM

## CC1(C)SC2C(NC(=O)C(C(=O)[O-])c3ccccc3)C(=O)N2C1C(=O)[O-].[Na+].[Na+] (stereo not given) [CARBENICILLIN DISODIUM]
  IC50 of cell viability: > 46 µM

## CCN(CC)CCOCCOC(=O)C1(c2ccccc2)CCCC1 [CARBETAPENTANE]
  IC50 of cell viability: > 46 µM

## C[C@@](Cc1ccc(O)c(O)c1)(NN)C(=O)O [CARBIDOPA]
  IC50 of cell viability: > 46 µM

## NC(CSCC(=O)O)C(=O)O (stereo not given) [CARBOCISTEINE]
  IC50 of cell viability: > 46 µM

## C=CC(=O)O [CARBOMER 940]
  IC50 of cell viability: > 46 µM

## CO[C@@H]1[C@@H](OC2OC(C)C(OC3CC(C)(O)C(OC(=O)CC(C)C)C(C)O3)C(N(C)C)C2O)[C@@H](CC=O)C[C@@H](C)C(=O)C=CC2O[C@H]2C[C@@H](C)OC(=O)C[C@H]1OC(C)=O (stereo not given in full) [CARBOMYCIN]
  IC50 of cell viability: > 46 µM

## [NH2][Pt]1([NH2])[O]C(=O)C2(CCC2)C(=O)[O]1 [CARBOPLATIN]
  IC50 of cell viability: > 46 µM

## OC(=O)C1=CC=C2[NH]C=C(CCCCN3CC\C(=C/C3)C4=CC=CC=C4)C2=C1 [CARMOXIROLUM]
  IC50 of cell viability: > 46 µM

## CCC(=O)c1ccc2c(c1)N(CCCN1CCN(CCO)CC1)c1ccccc1S2 [CARPHENAZINE MALEATE]
  IC50 of cell viability: > 46 µM

## CC(C(=O)O)c1ccc2c(c1)[nH]c1ccc(Cl)cc12 (stereo not given) [CARPROFEN]
  IC50 of cell viability: > 46 µM

## COC(=O)CCC[N+](C)(C)C [CARPRONIUM CHLORIDE]
  IC50 of cell viability: > 46 µM

## NC(=O)OC[C@@H]1[C@H](NC(=O)/C(=N/OCC(=O)[O-])c2csc(N)n2)C(=O)N1S(=O)(=O)[O-] [CARUMONAM SODIUM]
  IC50 of cell viability: > 46 µM

## COc1ccccc1OCCNCC(O)COc1cccc2[nH]c3ccccc3c12.O=C(O)C(O)C(O)C(=O)O (stereo not given) [CARVEDILOL TARTRATE]
  IC50 of cell viability: > 46 µM

## N[S+](=O)([O-])c1ccc(C(=O)O)cc1 [CARZENIDUM]
  IC50 of cell viability: > 46 µM

## N[C@@H](C(=O)N[C@H]1[C@H]2SC\C(=C(/N2C1=O)C(O)=O)CSC3=C[NH]N=N3)C4=CC=C(O)C=C4 [CEFATRIZINE]
  IC50 of cell viability: > 46 µM

## C=CC1=C(C(=O)O)N2C(=O)C(NC(=O)/C(=N\O)c3csc(N)n3)C2SC1 (stereo not given) [CEFDINIR]
  IC50 of cell viability: > 46 µM

## CO/N=C(\C(=O)NC1C(=O)N2C(C(=O)OCOC(=O)C(C)(C)C)=C(/C=C\c3scnc3C)CSC12)c1csc(N)n1 (stereo not given) [CEFDITORIN PIVOXIL]
  IC50 of cell viability: > 46 µM

## CO/N=C(\C(=O)N[C@@H]1C(=O)N2C(C(=O)OCOC(=O)C(C)(C)C)=C(C)CS[C@H]12)c1csc(N)n1 [CEFETAMET PIVOXIL HCl]
  IC50 of cell viability: > 46 µM

## CO/N=C(/C(=O)N[C@@H]1C(=O)N2C(C(=O)O)=C(CSc3nnnn3C)CS[C@H]12)c1csc(N)n1 [CEFMENOXIME HYDROCHLORIDE]
  IC50 of cell viability: > 46 µM

## CO[C@@]1(NC(=O)CSC[C@@H](N)C(=O)O)C(=O)N2C(C(=O)O)=C(CSc3nnnn3C)CS[C@@H]21 [CEFMINOX SODIUM]
  IC50 of cell viability: > 46 µM

## O=C([O-])C1=C(CSc2nnnn2CS(=O)(=O)[O-])CS[C@@H]2[C@H](NC(=O)[C@H](O)c3ccccc3)C(=O)N12 [CEFONICID SODIUM]
  IC50 of cell viability: > 46 µM

## [Na+].CCN1CCN(C(=O)NC(C(=O)NC2C3SC\C(=C(/N3C2=O)C([O-])=O)CSC4=NN=N[N]4C)C5=CC=C(O)C=C5)C(=O)C1=O (stereo not given) [CEFOPERAZONE SODIUM]
  IC50 of cell viability: > 46 µM

## CO/N=C(/C(=O)N[C@@H]1C(=O)N2C(C(=O)O)=C(C[n+]3ccc(N)n3CCO)CS[C@H]12)c1csc(N)n1 [CEFOSELIS SULFATE]
  IC50 of cell viability: > 46 µM

## CO/N=C(/C(=O)N[C@@H]1C(=O)N2C(C(=O)[O-])=C(C[n+]3ccn4ncccc43)CS[C@H]12)c1nsc(N)n1 [CEFOZOPRAN HYDROCHLORIDE]
  IC50 of cell viability: > 46 µM

## Cc1cc(O)c(C(=O)N[C@@H](C(=O)N[C@@H]2C(=O)N3C(C(=O)O)=C(CSc4nnnn4C)CS[C@H]23)c2ccc(O)cc2)cn1 [CEFPIRAMIDE SODIUM]
  IC50 of cell viability: > 46 µM

## CO/N=C(\C(=O)N[C@@H]1C(=O)N2C(C(=O)[O-])=C(C[n+]3cccc4c3CCC4)CS[C@H]12)c1csc(N)n1 [CEFPIROME SULPHATE]
  IC50 of cell viability: > 46 µM

## COCC1=C(C(=O)OC(C)OC(=O)OC(C)C)N2C(=O)[C@@H](NC(=O)/C(=N/OC)c3csc(N)n3)[C@H]2SC1 (stereo not given in full) [CEFPODOXIME PROXETIL]
  IC50 of cell viability: > 46 µM

## CO/N=C(\C(=O)N[C@@H]1C(=O)N2C(C(=O)[O-])=C(C[n+]3cccc4c3CCCC4)CS[C@H]12)c1csc(N)n1 [CEFQUINOME sulfate]
  IC50 of cell viability: > 46 µM

## CO/N=C(\C(=O)N[C@@H]1C(=O)N2C(C(=O)O)=C(Cn3nnc(C)n3)CS[C@H]12)c1csc(N)n1 [CEFTERAM]
  IC50 of cell viability: > 46 µM

## [O-]C(=O)C/1=C(/CS[C@@H]2[C@H](NC(=O)C[N]3C=NN=N3)C(=O)N12)CSC4=NN=CS4 [CEFTEZOLE SODIUM]
  IC50 of cell viability: > 46 µM
